{"source": "patent US20080039392A1", "about": "“CRAC channel and modulator screening methods” (THE REGENTS OF THE UNIVERSITY OF CALIFORNIA, priority 2006, published 2008)", "key": {"[1]": {"target": "T1, E180D Orai mutant + Stim (Drosophila melanogaster, UniProt Q9U6B8, E178D)", "T1 construct": "A cDNA clone, pAc5.1/olf186-F, encoding full-length Drosophila olf186-F-RB; expressed in transfected cells; host or cells: Drosophila S2 cells (Invitrogen)", "T1 sequence (Q9U6B8 whole entry E178D)": "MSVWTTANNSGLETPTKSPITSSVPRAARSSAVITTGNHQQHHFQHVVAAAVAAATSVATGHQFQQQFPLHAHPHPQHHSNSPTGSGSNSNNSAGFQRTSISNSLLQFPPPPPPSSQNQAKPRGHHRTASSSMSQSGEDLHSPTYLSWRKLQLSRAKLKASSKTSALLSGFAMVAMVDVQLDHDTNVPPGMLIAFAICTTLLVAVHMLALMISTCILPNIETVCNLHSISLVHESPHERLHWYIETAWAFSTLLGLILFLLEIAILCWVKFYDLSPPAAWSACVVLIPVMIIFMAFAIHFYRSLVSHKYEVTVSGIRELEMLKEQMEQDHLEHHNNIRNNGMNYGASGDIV", "T1 sequence (P83094 24-570, further chain)": "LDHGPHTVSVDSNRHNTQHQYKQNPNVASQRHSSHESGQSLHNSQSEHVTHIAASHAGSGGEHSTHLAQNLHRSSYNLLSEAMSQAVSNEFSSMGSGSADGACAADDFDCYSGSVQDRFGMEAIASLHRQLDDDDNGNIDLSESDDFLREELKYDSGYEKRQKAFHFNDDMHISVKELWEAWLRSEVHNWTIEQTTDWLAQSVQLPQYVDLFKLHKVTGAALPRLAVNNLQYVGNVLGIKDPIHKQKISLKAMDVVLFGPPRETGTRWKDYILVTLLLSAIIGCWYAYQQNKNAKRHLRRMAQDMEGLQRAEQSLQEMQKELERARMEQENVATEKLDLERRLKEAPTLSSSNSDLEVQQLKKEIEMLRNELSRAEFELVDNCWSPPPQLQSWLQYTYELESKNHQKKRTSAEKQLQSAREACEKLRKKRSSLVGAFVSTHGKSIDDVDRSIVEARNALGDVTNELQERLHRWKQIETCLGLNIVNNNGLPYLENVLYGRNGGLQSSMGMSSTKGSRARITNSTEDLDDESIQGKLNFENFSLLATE", "test": "Whole-cell recording of E180D Orai-induced CRAC current in S2 cells", "format": "cell-based", "conditions": "for effect of divalent cation on E180D Orai-induced current: 20 mM external divalent vs 2 mM Ca2+; for IC50: scaled to current in divalent-free solution", "text": "(§1) Generation of pAc5.1/EGFP, pAc5.1/D-STIM, pAc5.1/D-STIM-V5-His and pAc5.1/olf186-F (GenBank accession number DQ503470) were as described^5. olf186-F pore mutants were made by exchanging the corresponding codons (E180A: GAG to GCG; E180D: GAG to GAC; D184A: GAT to GCT; D186A: GAT to GCT; N188A: AAT to GCT; FIG. 14) using the QuikChange site-directed mutagenesis kit (Stratagene). The pAc5.1/HA-olf186-F clone was made by adding the HA tag via PCR and re-cloned into the XhoI and NotI sites of pAc5.1/V5-His B expression vector. Resulting clones were confirmed by sequencing. Description of the primers and conditions for cloning is available upon request. Both HA-olf186-F and Stim-V5-His were verified for normal function by whole-cell recording.\n(§2) Cells transfected (Amaxa) with Orai and Stim constructs were identified by fluorescence of co-transfected GFP. Patch clamp experiments were performed at room temperature in the standard whole-cell recording, using conditions similar to those reported previously^10. The membrane capacitance of S2 cells selected for recording was 11.6±0.4 pF (n=131 cells). Membrane potentials were corrected for a liquid junction potential of 10 mV between the pipette and bath solution. The series resistance (2-7 MΩ) was not compensated. The membrane potential was held at −10 mV, and 220-ms voltage ramps from −130 to 90 mV alternating with 220-ms pulses to −130 mV were delivered every 2 s. Only cells with high input (>2 GΩ) were selected for recording. External and pipette solution recipes are listed in supplementary table 1. Analyzed data are presented as mean ±SEM.\n(§3) Data were analyzed by Pulse (Heka Electronics) and Origin (OriginLab Corp.). Five I-V curves were averaged for display. […] Since almost all S2 cells at the moment of break-in display an outward current that disappears during perfusion with internal solution (but before the inward CRAC current starts to develop), the following procedure for leak subtraction was employed. The first three ramp currents after the outward current subsided were averaged (Imid). Then, another set of three ramps after maximal inward CRAC current had developed were averaged (Imax). The difference between Imax and Imid represents an isolated CRAC current but with amplitude less than the actual one. To correct this the difference was scaled such that the value of current at −130 mV is equal to maximal inward current minus initial inward current. Then the scaled difference was subtracted from Imax followed by fitting with a polynomial function. This fit was considered as the basal leak current. […] In this case a linear I-V curve reversing at 0 mV with current magnitude at +90 mV equal to the sustained outward current was assigned as leak current. For E180D Orai-induced CRAC current, the initial current was considered as leak."}, "[2]": {"tested_on": "CRAC current in olf186-F+Stim transfected S2 cells", "test": "Whole-cell recording of CRAC current in S2 cells co-transfected with olf186-F (WT Orai) + Stim", "format": "cell-based, Drosophila", "conditions": "for CRAC current density: at −130 mV, high-Ca2+ pipette solution, 10 μM IP3 in pipette or TG in bath", "description": "Whole-cell recording. Patch-clamp experiments were performed at room temperature in the standard whole-cell recording configuration. The membrane capacitance (a measure of cell surface area) of S2 cells selected for recording was 9.15±0.27 pF (mean ±SEM, n=287 cells, 22 experiments). To calculate current densities, peak current amplitudes were divided by membrane capacitance for each cell.\nas §2, §3"}, "[3]": {"target": "T2, D184A, D186A, N188A Orai mutants + Stim (Drosophila melanogaster, UniProt Q9U6B8, D182A)", "T2 construct": "A cDNA clone, pAc5.1/olf186-F, encoding full-length Drosophila olf186-F-RB; expressed in transfected cells; host or cells: Drosophila S2 cells (Invitrogen)", "T2 sequence (P83094 24-570)": "as the sequence (P83094 24-570, further chain) above", "T2 sequence (Q9U6B8 whole entry D182A)": "as the sequence (Q9U6B8 whole entry E178D) above, with D178E, D182A counted along it", "test": "Whole-cell recording of CRAC current of charge-neutralizing Orai mutants, block by Gd3+", "format": "cell-based", "conditions": "D184A Orai", "text": "as §1, §2"}, "[4]": {"target": "T3, D184A, D186A, N188A Orai mutants + Stim (Drosophila melanogaster, UniProt Q9U6B8, N186A)", "T3 construct": "A cDNA clone, pAc5.1/olf186-F, encoding full-length Drosophila olf186-F-RB; expressed in transfected cells; host or cells: Drosophila S2 cells (Invitrogen)", "T3 sequence (P83094 24-570)": "as the sequence (P83094 24-570, further chain) above", "T3 sequence (Q9U6B8 whole entry N186A)": "as the sequence (Q9U6B8 whole entry E178D) above, with D178E, N186A counted along it", "test": "Whole-cell recording of CRAC current of charge-neutralizing Orai mutants, block by Gd3+", "format": "cell-based", "conditions": "N188A Orai", "text": "as §1, §2"}, "[5]": {"target": "T4, D184A, D186A, N188A Orai mutants + Stim (Drosophila melanogaster, UniProt Q9U6B8, D184A)", "T4 construct": "A cDNA clone, pAc5.1/olf186-F, encoding full-length Drosophila olf186-F-RB; expressed in transfected cells; host or cells: Drosophila S2 cells (Invitrogen)", "T4 sequence (P83094 24-570)": "as the sequence (P83094 24-570, further chain) above", "T4 sequence (Q9U6B8 whole entry D184A)": "as the sequence (Q9U6B8 whole entry E178D) above, with D178E, D184A counted along it", "test": "Whole-cell recording of CRAC current of charge-neutralizing Orai mutants, block by Gd3+", "format": "cell-based", "conditions": "D186A Orai", "text": "as §1, §2"}, "[6]": {"tested_on": "Drosophila S2 cells", "test": "Single-cell ratiometric fura-2 [Ca2+]i imaging", "format": "cell-based", "conditions": "ionomycin in zero-Ca2+ solution, control cells", "description": "RNAi in Drosophila S2 cells. RNAi experiments were adapted from the protocols described by Worby et al. (2). Drosophila S2 cells (0.5×10^6) were seeded in T-25 flasks in 2 ml of complete S2 media. The next day, media was removed and replaced with 2 ml serum-free S2 media. 20 μg dsRNA was added and cells were incubated at room temperate for 45 min with gentle rocking. 4 ml S2 media was added and cells were incubated for 5 days at 24° C. Cells were then harvested and either plated for single cell Ca^2+ imaging and patch-clamp experiments or processed for RT-PCR analysis.\nSingle-cell [Ca2+]i imaging. Ratiometric [Ca2+]i imaging was performed as described, using solution recipes described in Table 3. Transfected cells were recognized by co-expressed enhanced green fluorescent protein (EGFP), using filters to avoid contamination of Fura-2 fluorescence by bleed-through of GFP fluorescence. Data were analysed with Metafluor software (Universal Imaging) and OriginPro 7.5 software (OriginLab) and are expressed as means ±SEM."}, "[7]": {"tested_on": "Stim-Orai protein interaction", "test": "Co-immunoprecipitation of Stim and Orai", "format": "cell-based, Drosophila", "conditions": "Ca2+ store depletion, 1 μM TG 15 min", "description": "Two days after transfection, 5×10^6 cells were treated with either Ringer or zero-Ca^2+ Ringer+1 μM TG using solutions described^6 for 15 min at room temperature. Cells transfected with Stim-V5-His only or HA-olf186-F only were used as controls. Cell extracts were then prepared using RIPA lysis buffer (Upstate) according to manufacturer instructions. The extracts were pre-cleared with protein A/G beads (Pierce) and protein concentration was determined, using the Pierce BCA Protein Reagent Kit. The cell lysate was then diluted to approximately 1 mg/ml total protein with PBS and mixed with either anti-HA monoclonal antibodies (1 μg/100 μg total protein, Santa Cruz) or anti-V5 monoclonal antibodies (1 μg/100 μg total protein, Invitrogen) for 4 hr at 4° C. Equal amount of samples were mixed with either normal mouse IgG or vehicle as negative controls. Protein A/G beads were subsequently added (1 μl/1 μg IgG) to rock overnight at 4° C. Proteins were eluted by boiling in 4× sample buffer (Invitrogen). Samples were resolved by SDS-PAGE and analyzed by standard western blotting techniques. Anti-HA monoclonal antibodies (Santa Cruz) were used at a dilution of 1:200. Anti-V5 monoclonal antibodies (Invitrogen) were used at a dilution of 1:2500. Proteins were detected by developing with the SuperSignal (Pierce) detection system."}}, "note": "Entries after “also recorded” stand apart in the source; their conditions may differ.", "data": [{"smiles": "NCCOB(c1ccccc1)c1ccccc1", "note": "[2-APB, 2-aminoethyldiphenyl borate]", "values": [{"measurement": "time course of E180D outward CRAC current", "setting": "[1]; 5 μM", "value": "immediate decrease preceding potentiation"}, {"measurement": "time course of E180D outward CRAC current", "setting": "[1]; 20 μM", "value": "immediate increase preceding inhibition"}, {"measurement": "effect on Ca2+ (CRAC) current", "setting": "[2]; 5 μM", "value": "characteristic potentiation of current before blocking; also recorded: potentiated"}, {"measurement": "effect on Ca2+ (CRAC) current", "setting": "[2]; 20 μM", "value": "blocked; also recorded: inhibited"}]}, {"smiles": "[Ba+2]", "note": "[Ba^2+]", "values": [{"measurement": "effect of divalent cation on E180D Orai-induced current", "setting": "[1]", "value": "significantly increased the inward current while decreasing the outward current"}]}, {"smiles": "[Ca+2]", "note": "[Ca^2+]", "values": [{"measurement": "effect of divalent cation on E180D Orai-induced current", "setting": "[1]", "value": "significantly decreased the outward current"}, {"measurement": "IC50", "setting": "[1]; IC50, half-blocking Ca2+ concentration for inward current, at −130 mV", "value": "48 ± 13", "unit": "µM"}, {"measurement": "IC50", "setting": "[1]; IC50, half-blocking Ca2+ concentration for outward current, at 90 mV", "value": "2050 ± 780", "unit": "µM"}]}, {"smiles": "[Gd+3]", "note": "[Gd^3+]", "values": [{"measurement": "potency of Gd3+ block", "setting": "[3]", "value": "significantly reduced"}, {"measurement": "potency of Gd3+ block", "setting": "[4]", "value": "to a lesser degree"}, {"measurement": "potency of Gd3+ block", "setting": "[5]", "value": "significantly reduced"}, {"measurement": "suppression of native and WT Orai-induced CRAC current", "setting": "[2]", "value": "very effectively suppresses"}, {"measurement": "effect on enhanced Ca2+ current", "setting": "[2]; 50 nM", "value": "blocked"}]}, {"smiles": "O=P(O)(O)O[C@@H]1[C@H](O)[C@H](O)[C@@H](OP(=O)(O)O)[C@H](OP(=O)(O)O)[C@H]1O", "note": "[IP3, inositol 1,4,5-trisphosphate]", "values": [{"measurement": "CRAC current density", "setting": "[2]", "value": "−11.4±3.1", "unit": "pA/pF"}]}, {"smiles": "[Mg+2]", "note": "[Mg^2+]", "values": [{"measurement": "effect of divalent cation on E180D Orai-induced current", "setting": "[1]", "value": "increased the current"}]}, {"smiles": "[Sr+2]", "note": "[Sr^2+]", "values": [{"measurement": "effect of divalent cation on E180D Orai-induced current", "setting": "[1]", "value": "had little effect"}]}, {"smiles": "C[C@H](CCC(=O)O)C[C@H](C)C[C@H](C)C(=O)/C=C(\\O)[C@H](C)C[C@H](C)C/C=C/[C@@H](C)[C@@H](O)[C@@H](C)[C@@H](O)C[C@@H]1CC[C@@](C)([C@H]2CC[C@@](C)([C@@H](C)O)O2)O1", "note": "[ionomycin]", "values": [{"measurement": "peak of Ca2+ release transient", "setting": "[6]", "value": "~200", "unit": "nM"}]}, {"smiles": "C/C=C(/C)C(=O)O[C@H]1C(C)=C2[C@H]([C@@H]1OC(=O)CCCCCCC)[C@@](C)(OC(C)=O)C[C@H](OC(=O)CCC)[C@@]1(O)[C@H]2OC(=O)[C@@]1(C)O", "note": "[thapsigargin]", "values": [{"measurement": "Stim-Orai protein interaction (co-immunoprecipitation)", "setting": "[7]", "value": "dramatically increased"}, {"measurement": "CRAC current density", "setting": "[2]", "value": "−7.6±2.5", "unit": "pA/pF"}]}]}
